From patent US9259006B2, “Antimicrobial compositions and methods of use thereof” (priority 2008, dated 2016)
Read-outs that look alike come from different tables or passages of the source.

How the values were obtained:
E. Coli (ATCC 43888) = type: cell-based; conditions: inoculum 6.87-log, about 33° F.
[1] = Hypochlorous acid stability and shelf life, DPD assay (Table 10, FIG. 1); type: physicochemical
[2] = Spinach leaf 25 grams, 180 min.

| Compound | Antimicrobial activity (log reduction) of single components (E. Coli (ATCC 43888); Spinach leaf 25 grams, 2 min.) [log] | Antimicrobial activity (log reduction) of single components (E. Coli (ATCC 43888); Spinach leaf 25 grams, 30 min.) [log] | Antimicrobial activity (log reduction) of single components (E. Coli (ATCC 43888); [2]) [log] | Antimicrobial activity (log reduction) of single components (E. Coli (ATCC 43888); Strawberry 25 grams, 2 min.) [log] | Antimicrobial activity (log reduction) of single components (E. Coli (ATCC 43888); Strawberry 25 grams, 30 min.) [log] | Antimicrobial activity (log reduction) of single components (E. Coli (ATCC 43888); Strawberry 25 grams, 180 min.) [log] | level of hypochlorous acid in solution ([1]; in the absence of diol at pH 7) [%] | level of hypochlorous acid in solution ([1]; in the presence of diol at pH 4, at about 4 hours) [%] |
| --- | --- | --- | --- | --- | --- | --- | --- | --- |
| BrBr [Bromine (0.08 wgt. %), Bromine] | 2.11 | 3.28 | 4.44 | 2.32 | 3.32 | 4.89 |  |  |
| O=[O+][O-] [Ozone (0.001 wgt. %), Ozone] | 2.34 | 2.58 | 3.63 | 2.89 | 3.12 | 4.12 |  |  |
| OCl [hypochlorous acid] |  |  |  |  |  |  | 100 | 0 |
| Octyl Phenol Ethoxylate [Octyl Phenol Ethoxylate (0.5 wgt. %)] | 1.15 | 2.47 | 3.11 | 1.05 | 2.78 | 3.9 |  |  |
